# Patent publication US8106024B2, “Method of treating cancer with an RPN2 gene expression inhibitor” (Taisho Pharmaceutical Co., Ltd., priority 2006, dated 2012)
# Experiments:
# PC-9/CDDP cell = experiment: Caspase activity in cisplatin-resistant lung cancer cells; format: cell-based, human; details: 3 days
# Procedure: (§1) A reagent for measurement of apoptosis was added to the plate after the measurement of the luciferase activity in Test Example 1, and the Caspase activity was measured. […] The Caspase activation rate was calculated with the control siRNA as 0%.
# To suppress RPN2 gene expression RPN2 siRNA was transduced into PC-9/CDDP cell which is a cell line of human lung cancer ([…], differentiated gland cancer), and resistant to cisplatin (Cis) that is a anti-cancer drug. Then, the cell was cultured for 3 days in the presence of or in the absence of cisplatin (0.3 μM). Then, Caspase activity was measured in the same way as described in Test Example 2. In addition, for comparison, the same test was conducted also for the system to which control siRNA not suppressing any gene expression was introduced.
# Luciferase gene (GL3) = experiment: siRNA introduction efficiency (suppression of luciferase activity); format: cell-based; details: MCF7-ADR-Luc, atelocollagen transfection array
# Procedure: Luciferase gene (GL3) was stably transfected into multidrug-resistant MCF7-ADR cells of which the parental Cell line is MCF7 breast cancer cell. The cell line was expressing luciferase and designated as MCF7-ADR-Luc.
# The MCF7-ADR-LUC cell obtained in (2) was inoculated into the array prepared in (1) in 4×10^3 cell number/well, and cultured for 3 days in the presence of 1 nM docetaxel (DOC). To the live cells were added luciferin, and from the luminescence value, cell growth inhibition rate and luciferase siRNA introduction efficiency were measured.
# Moreover, siRNA introduction efficiency was evaluated with the suppression rate of the luciferase activity by introduction of luciferase siRNA (GL3siRNA: dsRNA including a sense chain of Sequence No. 7 and an antisense chain of Sequence No. 8), separately from siRNA corresponding to each gene. In addition, luciferin (0.5 mM final concentration: Promega KK) was added to the medium, and the luciferase activity was measured immediately by a luminescence plate reader (ARVO: PerkinElmer, Inc.). Introduction of GL3 siRNA suppressed the luciferase activity by 80% in comparison with the control siRNA.
# MCF7-ADR-Luc cells [1] = experiment: Apoptosis induction test, Caspase-3/7 activity; format: cell-based; details: 3 days
# Procedure: as §1
# After 3 days, Caspase activity was measured in the same way as described in Test Example 2.
# MCF7-ADR-Luc cells [2] = experiment: Apoptosis induction test, Hoechst staining; format: cell-based; details: vs control siRNA
# Procedure: Moreover, in addition to the Caspase activity, apoptosis induction was investigated with observation by Hoechst staining (the cells were washed with PBS (−), added with 4% PFA-0.1% Triton X-100-1 mg/ml Hoechst 33342/in PBS (−), and fixed and stained at room temperature for 20 minutes. The cells were washed with PBS (−), and then observed under fluorescence microscope.).
# RPN2 gene [3] = experiment: RPN2 gene expression suppression test (real-time PCR); format: cell-based; details: MCF7-ADR-Luc, 3 days, atelocollagen transfection array; remaining expression
# Procedure: Into the atelocollagen cell transfection array prepared in Test Example 1 (1) were inoculated MCF7-ADR-Luc cells. After 3 days, cDNA was synthesized directly from the cell lysate, and real-time PCR was conducted, to investigate the RPN2 gene expression amount (SuperScript III Platinum CellsDirect Two-Step qRT-PCR: Invitrogen).
# MCF7-ADR-Luc cells [4] = experiment: Tumor growth test in a nude mouse; format: in vivo; details: 1 nmol siRNA/atelocollagen per tumor intratumoral + 20 mg/kg docetaxel i.p., 7 days after dosing, vs control siRNA
# Procedure: According to the protocol shown in FIG. 6, 1×10^7 MCF7-ADR-Luc cells suspended in 100 μl PBS (−) were transplanted into the mammary fat pad of the nude mouse (4 weeks old, scalpel). After 7 days when the tumor radius reached about 5 mm, siRNA and DOC were administered. Herein, atelocollagen in the final concentration of 5 mg/ml (w/vol) and siRNA in 1 nmol per tumor were mixed, and then 200 μl of atelocollagen (manufactured by KOKEN CO., LTD.)/siRNA was administered into the tumor. At the same time, 20 mg/kg of docetaxel was administered into the abdominal cavity. After 7 days, the tumor radius was measured to compare the tumor volumes.
# RPN2 gene [5] = experiment: RPN2 gene expression suppression test in a nude mouse (real-time RT-PCR of tumor); format: in vivo; details: 1 nmol siRNA/atelocollagen per tumor + 20 mg/kg docetaxel, tumor collected after 1 day
# Procedure: 1×10^7 MCF7-ADR-Luc cells suspended in 100 μl PBS (−) were transplanted into the mammary fat pad of the nude mouse (4 weeks old, scalpel). After 7 days, RPN2 siRNA and DOC were administered. Herein, atelocollagen in the final concentration of 5 mg/ml (w/vol) and RPN2 siRNA in 1 nmol per tumor were mixed, and then 200 μl of atelocollagen/siRNA was administered into the tumor. At the same time, 20 mg/kg of docetaxel was administered into the abdominal cavity. After 1 day, the tumor was collected and the total RNA was isolated, and RPN2 gene expression amount was measured with real-time RT-PCR (SYBR ExScript RT-PCR Kit: TaKaRa, LightCycler Real-Time PCR System: F. Hoffmann-La Roche Ltd.).
# The RPN2 gene expression amount was measured in the same method as Test Example 5 except that RPN2 siRNA and DOC were administered at 6 weeks after MCF7-ADR-Luc cells were transplanted into the mammary fat pad of the nude mouse (4 weeks old, scalpel).
# MCF7-ADR-Luc cells [6] = experiment: Apoptosis induction test in a nude mouse (TUNEL staining); format: in vivo; details: dosed 6 weeks after transplant; siRNA/atelocollagen intratumoral + 20 mg/kg docetaxel; tumor collected after 4 days
# Procedure: 1×10^7 MCF7-ADR-Luc cells suspended in 100 μl PBS (−) were transplanted into the mammary fat pad of the nude mouse (4 weeks old, scalpel). After 6 weeks, siRNA and DOC, or siRNA alone was administered. Atelocollagen in the final concentration of 5 mg/ml (w/vol) and siRNA in 1 nmol per tumor were mixed, and then 200 μl of atelocollagen/siRNA was administered into the tumor. At the same time, 20 mg/kg of docetaxel was administered into the abdominal cavity. After 4 days, the tumor was collected, and subjected to TUNEL staining (In Situ Cell Death Detection Kit: F. Hoffmann-La Roche Ltd.). The nucleus was subjected to counter staining with DAPI (4′,6-diamidino-2-phenylindole).
# HepG2 = experiment: Cell survival in human liver cancer cells (CellTiter-Glo); format: cell-based
# Procedure: HepG2, which is a cell line of human liver cancer, was inoculated into a 96 well plate in 5000/well. […] The control siRNA (dsRNA including a sense chain of Sequence No. 5 and an antisense chain of Sequence No. 6) was introduced as the negative control. At the same time with the siRNA, DOC was added in 1 nM of the final concentration. After the culture for 3 days, in order to determine the cell survival rate in each well, a quantification reagent for the live cells (CellTiter-Glo substrate: Promega KK) was added to each well, and the plate was stirred for 2 minutes, and left for 10 minutes. The luminescence was measured by a luminescence plate reader (ARVO: PerkinElmer).
molecule,measurement,setting,value
"N.N.[Cl][Pt][Cl] [cisplatin, reference compound]","Caspase activity, Cis+ versus Cis−","PC-9/CDDP cell; control siRNA system, cisplatin 0.3 μM",no difference
GL3 siRNA: luciferase siRNA: dsRNA including a sense chain of Sequence No. 7 and an antisense chain of Sequence No. 8 (sense CUUACGCUGAGUACUUCGANN; antisense UCGAAGUACUCAGCGUAAGNN; chemistry not given here; listed as Homo sapiens),suppression of luciferase activity in comparison with the control siRNA,Luciferase gene (GL3),80%
"RPN2 siRNA: dsRNA including a sense chain of Sequence No. 3 and an antisense chain of Sequence No. 4 (sense GGCCACUGUUAAACUAGAACA; antisense UUCUAGUUUAACAGUGGCCUG; listed as RNA, chemistry not given here; listed as Homo sapiens)",Caspase activity,"MCF7-ADR-Luc cells [1]; 1 nM docetaxel, vs control siRNA",induced strongly
same,Caspase activity (apoptosis),MCF7-ADR-Luc cells [1]; in the absence of DOC,apoptosis is induced
same,"nucleus morphology by Hoechst staining (aggregation, fragmentation)",MCF7-ADR-Luc cells [2],apoptosis is induced
same,RPN2 gene expression suppressed to,RPN2 gene [3],about 25%
same,tumor volume,MCF7-ADR-Luc cells [4],significant tumor shrinkage
same,"RPN2 gene expression suppressed by, in comparison with control siRNA group",RPN2 gene [5]; dosed 6 weeks after transplant,about 40%
same,"RPN2 gene expression suppressed by, in comparison with control siRNA group",RPN2 gene [5]; dosed 7 days after transplant,about 20%
same,apoptosis cells in tumor (TUNEL staining),MCF7-ADR-Luc cells [6],many apoptosis cells were found
same,Caspase activity (apoptosis),"PC-9/CDDP cell; cisplatin-treated (0.3 μM, Cis+)",significant apoptosis was induced
same,Caspase activity (apoptosis increase),PC-9/CDDP cell; cisplatin-untreated (Cis−),slight
same,"cancer cell growth suppression (luminescence intensity, RLU)","HepG2; HepG2, siRNA alone, Lipofectamine 2000, 3 days",showed cancer cell growth suppression effects alone
same,"cancer cell growth suppression (luminescence intensity, RLU)","HepG2; HepG2, siRNA with 1 nM DOC, 3 days",potentiating the cancer cell growth suppression effects of DOC
